# Source: patent US11945806B2, “Stabilization of amyloidogenic immunoglobulin light chains” (The Scripps Research Institute, priority 2019, dated 2024)
# Molecular target: WIL-FL (Homo sapiens, UniProt P01721)
# Assay: Unlabeled LC Protease Sensitivity Assay (proteinase K)
# Type: biochemical
# Conditions: small molecule 10 μM, WIL-FL 5 μM, proteinase K 50 nM, 2 hours at 37° C.
# Experimental: Unlabeled LC Protease Sensitivity Assay. WIL-FL (5 μM) in phosphate-buffered saline (PBS, pH 7.4)+0.02% Pluronic F-127 was incubated with proteinase K (50 nM) with small molecule (10 μM) in 1% DMSO vehicle, or vehicle alone. After 2 hours at 37° C., reactions were quenched with 2 mM phenylmethyl sulfonyl fluoride in methanol and centrifuged at 14,000 rpm for 2 minutes. Remaining WIL-FL was quantified by injecting 10 μL of the supernatant into a Waters Acquity H-Class Bio-UPLC (ultra performance liquid chromatography) instrument equipped with a BEH200 analytical size-exclusion column (1.7 μm, 4.6×150 mm) under isocratic conditions (0.2 mL/min, PBS+1 mM EDTA, 2400 psi backpressure, 15 min), monitoring absorbance at 280 nm. Activity of each compound is given as fold protection from protease=(A_compound−A_vehicle)/(A_no_protease−A_vehicle), where each “A” corresponds to peak integration of the respective treatment.
row,Compound,Protection (fold protection of LC from protease)
1,"CCN(CC)c1ccc2c(C)c(CCOC(=O)NCc3cnccn3)c(=O)oc2c1 [Compound 91, 2-(7-(diethylamino)-4-methyl-2-oxo-2H-chromen-3-yl)ethyl (pyrazin-2-ylmethyl)carbamate]",B (3 ≤ B < 0.6)
2,"CCN(CC)c1ccc2c(C)c(CCOC(=O)NCc3cccc(-c4cnccn4)c3)c(=O)oc2c1 [Compound 157, 2-(7-(diethylamino)-4-methyl-2-oxo-2H-chromen-3-yl)ethyl (3-(pyrazin-2-yl)benzyl)carbamate]",C (C ≥ 0.6)
3,"Cc1cc(=O)oc2cc(NCCCc3ccccc3)ccc12 [Compound 30, 4-methyl-7-((3-phenylpropyl)amino)-2H-chromen-2-one]",A (A < 0.3))
4,"CCN(CCCc1ccccc1)c1ccc2c(C)cc(=O)oc2c1 [Compound 31, 7-(ethyl(3-phenylpropyl)amino)-4-methyl-2H-chromen-2-one]",A (A < 0.3))
5,"CCN(CC)c1ccc2c(C)c(CCOC(=O)N3CCC(C)(O)C3)c(=O)oc2c1 (stereo not drawn) [Compound 111, 2-(7-(diethylamino)-4-methyl-2-oxo-2H-chromen-3-yl)ethyl 3-hydroxy-3-methylpyrrolidine-1-carboxylate]",A (A < 0.3))
6,"CCN(CC)c1ccc2c(C)c(CCOC(=O)NCc3ccc(NC(C)=O)cn3)c(=O)oc2c1 [Compound 127, 2-(7-(diethylamino)-4-methyl-2-oxo-2H-chromen-3-yl)ethyl ((5-acetamidopyridin-2-yl)methyl)carbamate]",B (3 ≤ B < 0.6)
7,"CCN(CC)c1ccc2c(C)c(CCOC(=O)NCc3ccc4[nH]ccc4c3)c(=O)oc2c1 [Compound 137, 2-(7-(diethylamino)-4-methyl-2-oxo-2H-chromen-3-yl)ethyl ((1H-indol-5-yl)methyl)carbamate]",B (3 ≤ B < 0.6)
8,"CCN(CC)c1ccc2c(C)c(CCOC(=O)NCc3cccc(-c4ccncc4)c3)c(=O)oc2c1 [Compound 162, 2-(7-(diethylamino)-4-methyl-2-oxo-2H-chromen-3-yl)ethyl (3-(pyridin-4-yl)benzyl)carbamate]",C (C ≥ 0.6)
9,"CCN(CC)c1ccc2c(C)c(CCOC(=O)NCc3cccc(-c4ccc[nH]c4=O)c3)c(=O)oc2c1 [Compound 163, 2-(7-(diethylamino)-4-methyl-2-oxo-2H-chromen-3-yl)ethyl (3-(2-oxo-1,2-dihydropyridin-3-yl)benzyl)carbamate]",C (C ≥ 0.6)
10,"CCN(CC)c1ccc2c(C)c(CCOC(=O)NCCc3ccccc3)c(=O)oc2c1 [Compound 80, 2-(7-(diethylamino)-4-methyl-2-oxo-2H-chromen-3-yl)ethyl phenethylcarbamate]",A (A < 0.3))
11,"CCC(CC)c1ccc2c(C)cc(=O)oc2c1 [Compound 168, 4-methyl-7-(pentan-3-yl)-2H-chromen-2-one]",A (A < 0.3))
12,"CCN(CC)c1ccc2c(C)c(CCOC(=O)N3CCN(c4cc(C)no4)CC3)c(=O)oc2c1 [Compound 113, 2-(7-(diethylamino)-4-methyl-2-oxo-2H-chromen-3-yl)ethyl 4-(3-methylisoxazol-5-yl)piperazine-1-carboxylate]",A (A < 0.3))
13,"CCN(CC)c1ccc2c(C)c(CCOC(=O)NCc3ccc4cc[nH]c(=O)c4c3)c(=O)oc2c1 [Compound 143, 2-(7-(diethylamino)-4-methyl-2-oxo-2H-chromen-3-yl)ethyl ((1-oxo-1,2-dihydroisoquinolin-7-yl)methyl)carbamate]",B (3 ≤ B < 0.6)
14,"CCN(CC)c1ccc2c(C)cc(=O)n(C)c2c1 [Compound 52, 7-(diethylamino)-1,4-dimethylquinolin-2(1H)-one]",A (A < 0.3))
15,"CCN(CC)c1ccc2c(C)c(CCOC(=O)N3CC(C(=O)OC)C3)c(=O)oc2c1 [Compound 104, 1-(2-(7-(diethylamino)-4-methyl-2-oxo-2H-chromen-3-yl)ethyl) 3-methyl azetidine-1,3-dicarboxylate]",A (A < 0.3))
16,"CCN(CC)c1ccc2c(C)c(CCOC(=O)NCc3ccco3)c(=O)oc2c1 [Compound 87, 2-(7-(diethylamino)-4-methyl-2-oxo-2H-chromen-3-yl)ethyl (furan-2-ylmethyl)carbamate]",B (3 ≤ B < 0.6)

# Continued, values first:
row,Protection (fold protection of LC from protease),Compound
1,A (A < 0.3)),"C=CCN(CC=C)c1ccc2c(C)cc(=O)oc2c1 [Compound 231, 7-(diallylamino)-4-methyl-2H-chromen-2-one]"
2,B (3 ≤ B < 0.6),"CCN(CC)c1ccc2c(C)c(CCNC(=O)NCc3cccc(-c4ccccc4)c3)c(=O)oc2c1 [Compound 284, 1-([1,1′-biphenyl]-3-ylmethyl)-3-(2-(7-(diethylamino)-4-methyl-2-oxo-2H-chromen-3-yl)ethyl)urea]"
3,A (A < 0.3)),"C=CCCNc1ccc2c(C)cc(=O)oc2c1 [Compound 247, 7-(but-3-en-1-ylamino)-4-methyl-2H-chromen-2-one]"
4,A (A < 0.3)),"Cc1cc(=O)oc2cc(C(=O)Nc3ccc4ncccc4c3)ccc12 [Compound 235, 4-methyl-2-oxo-N-(quinolin-6-yl)-2H-chromene-7-carboxamide]"
5,B (3 ≤ B < 0.6),"CCN(CC)c1ccc2c(C)c(CCN3C(=O)NC4(CCN(C(=O)c5ccc(C(N)=O)cc5)CC4)C3=O)c(=O)oc2c1 [Compound 198, 4-(3-(2-(7-(diethylamino)-4-methyl-2-oxo-2H-chromen-3-yl)ethyl)-2,4-dioxo-1,3,8-triazaspiro[4.5]decane-8-carbonyl)benzamide]"
6,B (3 ≤ B < 0.6),"CCN(CC)c1ccc2c(C)c(CCN3C(=O)NC4(CCN(C(=O)c5ccncn5)C4)C3=O)c(=O)oc2c1 (stereo not drawn) [Compound 207, 3-(2-(7-(diethylamino)-4-methyl-2-oxo-2H-chromen-3-yl)ethyl)-7-(pyrimidine-4-carbonyl)-1,3,7-triazaspiro[4.4]nonane-2,4-dione]"
7,A (A < 0.3)),"C=CCNc1ccc2c(C)cc(=O)oc2c1 [Compound 240, 7-(allylamino)-4-methyl-2H-chromen-2-one]"
8,A (A < 0.3)),"C=C(C)CN(C)c1ccc2c(C)cc(=O)oc2c1 [Compound 254, 4-methyl-7-(methyl(2-methylallyl)amino)-2H-chromen-2-one]"
9,A (A < 0.3)),"CCN(CC)c1ccc2c(C)c(CCNC(=O)NCc3ccc(-c4ccccc4)cc3)c(=O)oc2c1 [Compound 283, 1-([1,1′-biphenyl]-4-ylmethyl)-3-(2-(7-(diethylamino)-4-methyl-2-oxo-2H-chromen-3-yl)ethyl)urea]"
10,A (A < 0.3)),"Cc1cc(=O)oc2cc(NCC#N)ccc12 [Compound 269, 2-((4-methyl-2-oxo-2H-chromen-7-yl)amino)acetonitrile]"
11,A (A < 0.3)),"CCN(CC)c1ccc2c(C)c(CCN3C(=O)NC4(CCN(c5ccc(C#N)cn5)CC4)C3=O)c(=O)oc2c1 [Compound 191, 6-(3-(2-(7-(diethylamino)-4-methyl-2-oxo-2H-chromen-3-yl)ethyl)-2,4-dioxo-1,3,8-triazaspiro[4.5]decan-8-yl)nicotinonitrile]"
